Source: ChEMBL document CHEMBL3588744, “Structure-Based Optimization of Naphthyridones into Potent ATAD2 Bromodomain Inhibitors” (J Med Chem, 2015)

Assays:
[1] = molecular target: T1, Bromodomain-containing protein 9 (Homo sapiens, UniProt Q9H8M2); assay: Binding affinity to BRD9 in human HUT78 cells incubated for 45 mins by mass spectrometry based bromosphere chemoproteomic assay; format: cell-based
T1 sequence (Q9H8M2 whole entry): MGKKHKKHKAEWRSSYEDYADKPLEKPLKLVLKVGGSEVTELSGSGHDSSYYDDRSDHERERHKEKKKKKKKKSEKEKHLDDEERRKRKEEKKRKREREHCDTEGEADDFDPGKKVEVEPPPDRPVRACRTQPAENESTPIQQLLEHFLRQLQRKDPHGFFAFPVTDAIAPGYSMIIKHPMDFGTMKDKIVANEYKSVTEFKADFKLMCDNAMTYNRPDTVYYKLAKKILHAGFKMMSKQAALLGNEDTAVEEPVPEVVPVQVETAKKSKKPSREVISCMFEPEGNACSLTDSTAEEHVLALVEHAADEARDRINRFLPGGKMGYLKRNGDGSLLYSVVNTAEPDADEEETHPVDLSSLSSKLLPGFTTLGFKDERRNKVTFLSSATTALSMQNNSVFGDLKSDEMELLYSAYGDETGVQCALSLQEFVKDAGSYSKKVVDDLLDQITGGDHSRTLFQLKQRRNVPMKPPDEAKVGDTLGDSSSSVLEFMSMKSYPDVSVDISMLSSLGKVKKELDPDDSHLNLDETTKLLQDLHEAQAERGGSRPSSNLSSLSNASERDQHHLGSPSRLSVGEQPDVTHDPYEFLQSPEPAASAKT

physchem = settings: phosphate buffered saline, pH 7.4, solubility
Description: Solubility of the compound in phosphate buffered saline at pH 7.4 after 1 hr by CLND method

[2] = molecular target: T2, Bromodomain-containing protein 4 (Homo sapiens, UniProt O60885); assay: Binding affinity to BRD4 BD1 (unknown origin) by BROMOscan panel based assay
[3] = molecular target: Bromodomain-containing protein 1 (Homo sapiens, UniProt O95696); assay: Binding affinity to BRPF2 (unknown origin) by BROMOscan panel based assay
Bromodomain-containing protein 1, sequence (O95696 whole entry): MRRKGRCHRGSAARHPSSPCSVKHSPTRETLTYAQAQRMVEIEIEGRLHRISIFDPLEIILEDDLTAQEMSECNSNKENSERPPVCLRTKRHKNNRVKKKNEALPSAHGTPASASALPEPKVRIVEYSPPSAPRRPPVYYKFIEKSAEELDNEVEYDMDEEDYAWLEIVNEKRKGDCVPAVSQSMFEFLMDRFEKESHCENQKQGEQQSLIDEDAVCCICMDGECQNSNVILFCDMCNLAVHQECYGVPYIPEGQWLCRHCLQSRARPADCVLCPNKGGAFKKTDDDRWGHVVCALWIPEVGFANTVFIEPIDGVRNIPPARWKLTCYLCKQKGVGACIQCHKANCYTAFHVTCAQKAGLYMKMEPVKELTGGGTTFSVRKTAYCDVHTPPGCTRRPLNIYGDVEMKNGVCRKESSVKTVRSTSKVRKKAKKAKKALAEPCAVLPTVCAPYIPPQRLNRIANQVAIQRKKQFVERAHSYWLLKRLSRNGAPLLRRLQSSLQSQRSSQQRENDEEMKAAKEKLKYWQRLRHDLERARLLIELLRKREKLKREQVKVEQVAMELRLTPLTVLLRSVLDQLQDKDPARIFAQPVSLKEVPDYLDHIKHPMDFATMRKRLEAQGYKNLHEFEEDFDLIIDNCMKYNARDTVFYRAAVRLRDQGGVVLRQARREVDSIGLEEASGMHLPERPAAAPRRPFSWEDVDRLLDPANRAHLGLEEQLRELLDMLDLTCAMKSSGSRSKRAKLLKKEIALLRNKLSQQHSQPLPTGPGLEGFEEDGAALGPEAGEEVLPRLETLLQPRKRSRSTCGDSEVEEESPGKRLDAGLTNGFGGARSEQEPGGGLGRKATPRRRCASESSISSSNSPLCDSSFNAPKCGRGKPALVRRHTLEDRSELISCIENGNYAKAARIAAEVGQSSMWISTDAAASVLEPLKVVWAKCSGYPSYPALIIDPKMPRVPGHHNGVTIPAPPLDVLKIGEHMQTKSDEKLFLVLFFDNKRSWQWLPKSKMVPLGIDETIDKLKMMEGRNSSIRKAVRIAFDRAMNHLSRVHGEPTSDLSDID

[4] = molecular target: SWI/SNF-related matrix-associated actin-dependent regulator of chromatin subfamily A member 4 (Homo sapiens, UniProt P51532); assay: Binding affinity to SMARCA4 in human HUT78 cells incubated for 45 mins by mass spectrometry based bromosphere chemoproteomic assay; format: cell-based
[5] = molecular target: Histone acetyltransferase KAT2B (Homo sapiens, UniProt Q92831); assay: Binding affinity to KAT2B in human HUT78 cells incubated for 45 mins by mass spectrometry based bromosphere chemoproteomic assay; format: cell-based
Histone acetyltransferase KAT2B, sequence (Q92831 whole entry): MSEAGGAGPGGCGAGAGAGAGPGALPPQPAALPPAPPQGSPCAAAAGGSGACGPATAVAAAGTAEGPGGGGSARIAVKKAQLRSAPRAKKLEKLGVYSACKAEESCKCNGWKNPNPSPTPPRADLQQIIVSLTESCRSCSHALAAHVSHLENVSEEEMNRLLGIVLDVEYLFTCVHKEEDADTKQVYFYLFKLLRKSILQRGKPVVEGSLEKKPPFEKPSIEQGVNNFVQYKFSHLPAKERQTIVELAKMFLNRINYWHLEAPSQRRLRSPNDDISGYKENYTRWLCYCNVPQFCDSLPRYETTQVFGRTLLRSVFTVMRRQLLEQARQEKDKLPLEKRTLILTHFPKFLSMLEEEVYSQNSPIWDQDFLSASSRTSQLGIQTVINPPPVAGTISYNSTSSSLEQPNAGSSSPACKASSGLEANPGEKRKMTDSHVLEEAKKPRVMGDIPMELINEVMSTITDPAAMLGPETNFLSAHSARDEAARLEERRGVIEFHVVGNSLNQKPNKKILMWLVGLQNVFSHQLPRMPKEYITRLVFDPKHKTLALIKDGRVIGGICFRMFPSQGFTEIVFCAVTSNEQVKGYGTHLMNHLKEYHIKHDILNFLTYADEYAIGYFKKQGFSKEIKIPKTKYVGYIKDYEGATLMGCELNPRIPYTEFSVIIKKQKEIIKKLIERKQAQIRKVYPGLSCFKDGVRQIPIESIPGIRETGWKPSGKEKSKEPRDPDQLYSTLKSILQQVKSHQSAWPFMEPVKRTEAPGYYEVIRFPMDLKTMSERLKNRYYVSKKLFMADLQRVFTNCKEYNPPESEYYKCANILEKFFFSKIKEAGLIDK

[6] = molecular target: Bromodomain-containing protein 3 (Homo sapiens, UniProt Q15059); assay: Binding affinity to BRD3 containing BD1 bromodomains (unknown origin) by TR-FRET assay
Bromodomain-containing protein 3, sequence (Q15059 whole entry): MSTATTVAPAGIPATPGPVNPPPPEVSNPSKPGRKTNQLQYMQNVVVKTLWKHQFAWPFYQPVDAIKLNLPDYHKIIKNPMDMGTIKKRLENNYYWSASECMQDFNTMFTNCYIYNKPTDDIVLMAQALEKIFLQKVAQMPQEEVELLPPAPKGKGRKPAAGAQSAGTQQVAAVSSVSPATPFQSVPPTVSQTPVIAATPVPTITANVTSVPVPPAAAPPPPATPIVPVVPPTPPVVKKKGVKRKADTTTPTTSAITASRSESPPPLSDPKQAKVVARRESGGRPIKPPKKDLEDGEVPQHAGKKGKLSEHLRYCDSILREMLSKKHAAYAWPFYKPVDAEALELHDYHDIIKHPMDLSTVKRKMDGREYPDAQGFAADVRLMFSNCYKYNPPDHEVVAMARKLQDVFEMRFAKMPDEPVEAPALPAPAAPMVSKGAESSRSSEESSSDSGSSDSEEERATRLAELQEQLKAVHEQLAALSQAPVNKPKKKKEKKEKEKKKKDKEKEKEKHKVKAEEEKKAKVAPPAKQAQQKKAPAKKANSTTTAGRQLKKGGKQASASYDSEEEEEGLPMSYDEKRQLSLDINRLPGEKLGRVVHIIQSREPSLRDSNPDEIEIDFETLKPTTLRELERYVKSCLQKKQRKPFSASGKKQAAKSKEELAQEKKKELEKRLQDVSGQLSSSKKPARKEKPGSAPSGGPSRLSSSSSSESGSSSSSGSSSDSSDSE

[7] = molecular target: Transcription initiation factor TFIID subunit 1 (Homo sapiens, UniProt P21675); assay: Binding affinity to TAF1 in human HUT78 cells incubated for 45 mins by mass spectrometry based bromosphere chemoproteomic assay; format: cell-based
[8] = Permeability across phosphatidyl choline membrane at pH 7.4 after 3 hrs by HPLC with UV detection method; format: ADME; settings: not told, read-out: permeability
[9] = molecular target: T2, Bromodomain-containing protein 4; assay: Binding affinity to BRD4 containing BD2 bromodomains (unknown origin) by TR-FRET assay
[10] = molecular target: Bromodomain and PHD finger-containing protein 3 (Homo sapiens, UniProt Q9ULD4); assay: Binding affinity to BRPF3 (unknown origin) by BROMOscan panel based assay
Bromodomain and PHD finger-containing protein 3, sequence (Q9ULD4 whole entry): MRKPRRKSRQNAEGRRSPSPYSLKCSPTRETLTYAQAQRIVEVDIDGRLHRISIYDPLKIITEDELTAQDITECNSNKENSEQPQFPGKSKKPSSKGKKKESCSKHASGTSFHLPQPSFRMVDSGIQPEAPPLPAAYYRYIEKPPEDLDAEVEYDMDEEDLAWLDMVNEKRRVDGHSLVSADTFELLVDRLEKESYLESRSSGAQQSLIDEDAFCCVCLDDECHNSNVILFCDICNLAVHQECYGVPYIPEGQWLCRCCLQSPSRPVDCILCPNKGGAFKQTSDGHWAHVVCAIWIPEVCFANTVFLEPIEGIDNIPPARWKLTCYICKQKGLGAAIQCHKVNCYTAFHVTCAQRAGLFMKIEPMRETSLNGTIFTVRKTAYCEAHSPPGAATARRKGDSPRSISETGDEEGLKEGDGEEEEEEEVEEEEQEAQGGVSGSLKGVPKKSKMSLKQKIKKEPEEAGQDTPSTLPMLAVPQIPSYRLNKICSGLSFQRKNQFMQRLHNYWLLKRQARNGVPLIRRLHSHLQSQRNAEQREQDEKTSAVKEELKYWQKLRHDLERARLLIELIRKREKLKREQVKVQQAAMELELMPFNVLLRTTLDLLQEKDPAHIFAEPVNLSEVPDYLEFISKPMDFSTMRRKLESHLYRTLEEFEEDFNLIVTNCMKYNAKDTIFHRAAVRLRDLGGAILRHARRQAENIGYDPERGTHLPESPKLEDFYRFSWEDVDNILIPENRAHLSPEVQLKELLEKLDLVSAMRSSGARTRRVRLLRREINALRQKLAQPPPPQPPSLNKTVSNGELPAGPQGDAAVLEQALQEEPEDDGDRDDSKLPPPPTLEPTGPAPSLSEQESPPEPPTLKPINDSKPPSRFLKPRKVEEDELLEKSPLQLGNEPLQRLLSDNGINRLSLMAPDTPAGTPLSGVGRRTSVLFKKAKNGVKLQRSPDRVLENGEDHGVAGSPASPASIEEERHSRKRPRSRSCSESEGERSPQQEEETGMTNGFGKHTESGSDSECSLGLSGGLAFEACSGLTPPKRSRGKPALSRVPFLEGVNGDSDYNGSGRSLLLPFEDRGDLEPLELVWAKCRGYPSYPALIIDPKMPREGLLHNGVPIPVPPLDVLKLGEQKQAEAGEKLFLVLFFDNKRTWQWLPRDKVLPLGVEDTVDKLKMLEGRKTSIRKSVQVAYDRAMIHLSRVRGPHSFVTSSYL

[11] = molecular target: Bromodomain-containing protein 2 (Homo sapiens, UniProt P25440); assay: Binding affinity to BRD2 in human HUT78 cells incubated for 45 mins by mass spectrometry based bromosphere chemoproteomic assay; format: cell-based
Bromodomain-containing protein 2, sequence (P25440 whole entry): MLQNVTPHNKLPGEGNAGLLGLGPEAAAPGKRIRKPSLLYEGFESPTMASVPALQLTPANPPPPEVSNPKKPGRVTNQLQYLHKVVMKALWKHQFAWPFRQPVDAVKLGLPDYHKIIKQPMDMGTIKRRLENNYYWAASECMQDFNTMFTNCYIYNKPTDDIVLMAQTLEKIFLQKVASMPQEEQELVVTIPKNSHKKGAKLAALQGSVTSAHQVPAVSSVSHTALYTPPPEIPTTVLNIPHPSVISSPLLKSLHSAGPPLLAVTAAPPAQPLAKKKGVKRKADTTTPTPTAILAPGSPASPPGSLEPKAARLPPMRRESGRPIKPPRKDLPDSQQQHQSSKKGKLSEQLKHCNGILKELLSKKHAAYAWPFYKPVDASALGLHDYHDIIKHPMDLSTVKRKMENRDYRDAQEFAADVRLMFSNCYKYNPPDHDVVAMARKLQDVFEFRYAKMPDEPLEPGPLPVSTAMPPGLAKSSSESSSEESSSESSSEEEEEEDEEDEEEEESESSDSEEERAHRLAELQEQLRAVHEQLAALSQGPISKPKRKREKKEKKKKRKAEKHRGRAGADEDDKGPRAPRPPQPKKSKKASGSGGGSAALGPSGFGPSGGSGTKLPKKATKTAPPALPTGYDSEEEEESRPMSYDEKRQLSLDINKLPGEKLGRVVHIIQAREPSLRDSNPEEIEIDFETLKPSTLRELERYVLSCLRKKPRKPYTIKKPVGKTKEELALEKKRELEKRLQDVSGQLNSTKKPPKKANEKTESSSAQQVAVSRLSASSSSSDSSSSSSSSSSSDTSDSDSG

Kd [1]: 15.8 µM
solubility kinetic at 1 h (physchem): ≥ 341 µM
Ki [2]: 7.94 µM
Ki [3]: 0.398 µM
Kd [4]: 20 µM
Kd [5]: > 100 µM
IC50 [6]: > 50.1 µM
Kd [7]: 1.26 µM
Papp at 3 h [8]: < 1 ×10⁻⁶ cm/s
IC50 [9]: > 501 µM
Ki [10]: 0.794 µM
Kd [11]: 20 µM
Structure (SMILES): Cc1cncc(-c2cnc(N[C@@H]3CCN(C)C[C@H]3OCC3CCS(=O)(=O)CC3)c3[nH]c(=O)c(C)cc23)c1
